{
  "source": "patent US12133846B2",
  "about": "“Electrophilic androgen receptor (AR) antagonists for AR downregulation and ferroptosis induction in cancer cells” (priority 2019, dated 2024)",
  "key": {"VCaP cells [1]": {"tested_on": "VCaP cells", "assay": "MTT viability assay, VCaP cells", "format": "cell-based", "conditions": "Homo sapiens, VCaP, 72 h, read-out: IC50, viability of VCaP cells", "text": "(§1) Biological Characterization. ITC-ARi hybrid drugs effectively reduce the viability of PCa cells. By using an MTT assay, it was first examined if the newly synthesized hybrid drugs affect the viability of CRPC-relevant PCa cells. PCa VCaP cells naturally express abundant wild type FL AR as well as AR splice variants (e.g., AR-V7). These cells were, therefore, used as one of the cell culture models in this work to investigate the drug-caused viability loss and AR downregulation."}, "22Rv1 cells [2]": {"tested_on": "22Rv1 cells", "assay": "MTT viability assay, 22Rv1 cells", "format": "cell-based", "conditions": "5 μM, 72 h", "text": "as §1"}, "C4-2 cells [3]": {"tested_on": "C4-2 cells", "assay": "MTT viability assay, C4-2 cells", "format": "cell-based", "conditions": "5 μM, 72 h", "text": "as §1"}, "LNCaP and RWPE-1 cells": {"tested_on": "LNCaP and RWPE-1 cells", "assay": "MTT viability, PCa LNCaP versus non-cancerous RWPE-1 cells", "format": "cell-based", "conditions": "72 h, 2.5 to 10 μM", "text": "Because of the better selectivity and water solubility of 2-63 over 12b, 2-63 was used for further in vitro characterization and mechanistic studies."}, "[4]": {"tested_on": "AR transcriptional activity in MDA-kb2 cells", "assay": "cells", "format": "cell-based", "conditions": "DHT 1 nM", "method": "MDA-kb2-cell-based ARE luciferase assays were performed to assess the influence of 2-63 and related compounds on AR transcriptional activity. […] Upon androgen stimulation and addition of a luciferase substrate, […], and the intensity is proportional to the extent of AR activation. An agent that either antagonistically competes with DHT for AR binding or reduces the expression of AR diminishes luciferase activity/fluorescence signal in this experimental system. […] 10b (an alcohol) and 11 b (an azide) are synthetic precursors of the ITC hybrid 12b.\nLuciferase Assay. […] For all procedures, cells were incubated at CO2 free condition. Steady-Glo® (Promega Corp., Madison, WI) reagent was added to culture media with shaking for 10 min. Samples (100 μL) were transferred to an opaque 96-well white plate, and luminescence was measured using a luminometer."}, "FL AR and AR-V7": {"tested_on": "FL AR and AR-V7", "assay": "Cycloheximide chase of AR protein stability in VCaP cells", "format": "cell-based", "conditions": "cycloheximide 25 μg/mL, 2-63 10 μM, 2-16 h", "method": "(§2) FL AR is a client protein of Hsp90, and AR-V7 might be chaperoned by Hsps other than Hsp90 (Moses, et al., Cancer Res. 2018, 78, 4022-4035). Because Hsp70 upregulation is an indicator of heat shock protein disruption (Kitson, et al., Nat. Chem. 2013, 5, 307-314) that causes client protein degradation, it was assessed whether 2-63 could change the protein stability of AR and AR-V7. […] 2-63-induced AR/AR-V7 downregulation was partially rescued by the proteasome inhibitor MG-132 (data not shown). This supports the involvement of proteasome degradation in AR reduction. Besides the posttranslational mechanisms, AR downregulation could also be caused by suppressing transcription factors (TFs) that drive the transcription of the AR gene. Sp1 and c-Myc were selected as representatives that could be affected by 2-63. Multiple Sp1 binding sites are located near the transcriptional initiation region of the AR gene.\n(§3) Western Blotting. […] The protein concentration of supernatants was determined using the Pierce BCA Protein Assay Kit (Thermo Fisher, Cat #23225). […] The blots were developed in the Enhanced Chemiluminescence mixture and detected by ImageQuant™ LAS 4000 imaging system (GE). Density of protein bonds were calculated and analyzed by using imageJ software downloaded from the National Institute of Health website."}, "Sp1 and c-Myc": {"tested_on": "Sp1 and c-Myc", "assay": "Western blotting of transcription factors in VCaP cells", "format": "cell-based", "conditions": "5.0 and 10 μM, 24 h", "method": "as §2, §3"}, "[5]": {"tested_on": "AR, AR-V7, c-Myc, HO-1, Hsp70", "assay": "Western blotting under BSO combination, VCaP cells", "format": "cell-based", "conditions": "VCaP, 2-63 2.5 μM plus BSO 100 μM", "method": "It was first investigated if iron chelators or antioxidants could rescue the viability of drug combination-treated cells. […] HO-1 catalyzes the decomposition of heme into carbon monoxide, biliverdin, and Fe^2+. […] Both Fer-1 and the lipophilic antioxidant α-Toc can effectively scavenge radicals in phosphatidylcholine lipid bilayers and break the redox cycle that generates lipid hydroperoxide.\nWestern Blotting. […] Proteins in cell lysates (40 μg) were separated using electrophoresis on SDS-PAGE and transferred onto PVDF (polyvinylidenedifluoride) membranes. Membranes were blocked in 5% fat-free milk followed by incubation with primary antibodies overnight at 4° C., and the secondary horseradish peroxidase-conjugated anti-rabbit or anti-mouse antibodies. The blots were developed in the Enhanced Chemiluminescence mixture and detected by ImageQuant™ LAS 4000 imaging system (GE). Density of protein bonds were calculated and analyzed by using imageJ software downloaded from the National Institute of Health website."}, "C4-2 cells [6]": {"tested_on": "C4-2 cells", "conditions": "5 μM, DHT 1 nM, charcoal stripped FBS, 6 days", "quoted_text": "The medium and drug were refreshed every two days.\nThe anti-PCa potential of 2-63 was further characterized by assessing its inhibitory effects on DHT-stimulated C4-2 cell growth. […] C4-2 cells were cultured in charcoal-stripped, steroid-free medium and cells were stimulated with androgen."}, "VCaP cells [7]": {"tested_on": "VCaP cells", "assay": "BSO pretreatment plus drug, MTT viability, VCaP cells", "quoted_text": "(§4) Cell viability was then assessed using an MTT assay.\n(§5) PCa cells (6×10^3 cells/well) were seeded into 96-well plates overnight and then treated with indicated compounds at indicated concentrations and time durations. The MTT (3-(4, 5-Dimethylthiazol-2-yl)-2,5-diphenyltetrazolium bromide) assay was performed according to the standard protocol. Briefly, MTT (0.5 mg/mL) was incubated with cells at 37° C. for 3 hours. Supernatant was removed, followed by the addition of dimethyl DMSO (100 μl). After incubation for 30 minutes at 37° C., absorbance was read at 570 nm on a microplate reader."}, "22Rv1 cells [8]": {"tested_on": "22Rv1 cells", "assay": "BSO pretreatment plus drug, MTT viability, 22Rv1 cells", "quoted_text": "as §4, §5"}, "RWPE-1 cells": {"tested_on": "RWPE-1 cells", "assay": "BSO pretreatment plus 2-63, MTT viability, RWPE-1 cells", "conditions": "BSO 100 μM plus 2-63 5 μM, 24 h", "quoted_text": "as §4, §5"}, "[9]": {"conditions": "BSO 2.5-10 μM 16 h pretreatment, then 2-63 1-10 μM 24 h, synergism = index <0.8"}},
  "data": [
    {"smiles": "CC(=O)N[C@H](CSC(=S)NCCCCCCc1ccc(N2C(=S)N(c3ccc(C#N)c(C(F)(F)F)c3)C(=O)C2(C)C)cn1)C(=O)O", "note": "[2-63, N-acetyl-S-((6-(5-(3-(4-cyano-3-(trifluoromethyl)phenyl)-5,5-dimethyl-4-oxo-2-thioxoimidazolidin-1-yl)pyridine-2-yl)hexyl)carbamothioyl)-D-cysteine]", "values": [
      {"measurement": "IC50", "setting": "VCaP cells [1]", "value": 6.09, "unit": "µM"},
      {"measurement": "relative potency in viability reduction, 22Rv1 cells", "setting": "22Rv1 cells [2]", "value": 12, "unit": "b>2-63>PEITC-NAC"},
      {"measurement": "relative potency in viability reduction, C4-2 cells", "setting": "C4-2 cells [3]", "value": 12, "unit": "b>2-63>PEITC-NAC"},
      {"measurement": "differential anti-proliferative effect, LNCaP vs RWPE-1 cells", "setting": "LNCaP and RWPE-1 cells", "value": "more tolerated by RWPE-1 cells"},
      {"measurement": "AR inhibition at 1 μM relative to Enz, 10b and 11b", "setting": "[4]; 1 μM", "value": "less effective"},
      {"measurement": "suppression of DHT-stimulated luciferase activity", "setting": "[4]; 1-5 μM", "value": "decreased luciferase activity in a dose-dependent manner"},
      {"measurement": "AR inhibition at higher concentrations relative to comparators", "setting": "[4]; 2.5 and 5 μM", "value": "similarly with these non-ITC-containing compounds"},
      {"measurement": "stability of FL AR and AR-V7 proteins", "setting": "FL AR and AR-V7", "value": "significantly reduced"},
      {"measurement": "Sp1 and c-Myc protein level", "setting": "Sp1 and c-Myc", "value": "dose-dependently reduced"},
      {"measurement": "AR/AR-V7, c-Myc and HO-1 expression versus individual drugs", "setting": "[5]", "value": "more effectively downregulated AR/AR-V7 and c-Myc and upregulated the cellular stress marker HO-1"},
      {"measurement": "viability reduction of DHT-stimulated C4-2 cells", "setting": "C4-2 cells [6]", "value": 70, "unit": "%"},
      {"measurement": "combinatorial effect with BSO (interaction index), VCaP", "setting": "VCaP cells [7]; [9]", "value": "synergistically reduced viability"},
      {"measurement": "viability suppression, VCaP cells", "setting": "VCaP cells [7]; BSO plus 2-63 reduced to 2.5 μM, 24 h", "value": 60, "unit": "%"},
      {"measurement": "combinatorial effect with BSO (interaction index), 22Rv1", "setting": "22Rv1 cells [8]; [9]", "value": "synergistically reduced viability"},
      {"measurement": "cytotoxicity at 5 µM", "setting": "22Rv1 cells [8]; Homo sapiens, 22Rv1, 24 h, read-out: viability reduction, 22Rv1 cells", "value": 65, "unit": "%"},
      {"measurement": "viability of RWPE-1 cells remaining", "setting": "RWPE-1 cells", "value": "Eighty"}
    ]}
  ]
}
